Data published in patent US12589160B2, “Peptide-derived therapeutics targeting KDM5C for the treatment of cancer” (NUVOBIO CORPORATION, priority 2019, dated 2026).

Assays:
[1] = tested on: KDM5; details: given as 'in vivo'; Vinogradova et al., 2016; read-out: IC50 of KDM5 inhibition; cited from earlier work
[2] = tested on: H3K4me3 levels in HCT 116 cells; assay: Histone H3K4me3 status by western blot of histone extracts; assay type: cell-based; details: for global H3K4me3 levels: HCT 116
Protocol: FIG. 9. Comparison of KDM5 inhibitors, EP4-TAT and CPI-455. […] (B) Relative H3K4me3 levels were monitored in histone extracts from HCT 116 cells.
The EP4-TAT inhibitor from all the above experiments were tested for histone methylation status in HCT 116 cells. 3×10^6 cells were plated in 10 cm dish and incubated overnight. Cells were then treated with the inhibitors at various concentrations (0.001 to 15 μM). Cells (5×10^6 cells/mL), 24 hr of post dosing, were collected in 15 mL falcon tube and centrifuged at 300×g for 10 min. The supernatant was discarded and the cells are washed with iced cold PBS. The cell pellet is flash-frozen in liquid nitrogen and stored at −80° C. Histone isolation is done using standard protocol. To summarize, cells were re-suspended in 1 mL hypotonic lysis buffer (10 mM Tris-HCl pH 8, 1 mM KCl, 1.5 mM MgCl2 and 1 mM DTT) containing protease inhibitor. The cells were transferred to 1.5 mL tube and incubated for 30 min on rotor at 4° C. to promote hypotonic swelling and lysis. The intact nuclei are collected by centrifugation at 10,000×g for 10 min in a cooled tabletop centrifuge. The supernatant is entirely discarded and pellets were re-suspended completely in 600 μL 0.4N H2SO4 and incubated overnight on rotor at 4° C. The nuclear debris were removed by centrifugation at 16,000×g for 10 min. The supernatant containing the histones were transferred to a fresh 1.5 mL tube and precipitated by adding 195 μL TCA (33%) drop by drop. The reaction is incubated at 4° C. overnight under rotation. The histones were pelleted by centrifugation at 16,000×g for 10 min. After complete removal of the supernatant carefully, the histone pellets were washed with ice-cold acetone to remove the left-over acids without disturbing the pellet. Finally, the pellets were air dried for 30 min at room temperature. The histone pellets were dissolved in 100 μL milliQ water and stored frozen at −20° C. Samples of 1, 3 and 5 μL of histones were separated on 15% SDS-PAGE gel and stained with Coomassie Brilliant Blue and characterized on the quality and concentration of the histone. The locations of the linker histone H1 and the core histones H3, H2B, H2A and H4 were noted.
For western blot, of total of 1 μL of histones were separated on 15% SDS-PAGE and transferred overnight at 15V on PVDF membrane. Following blocking with 5% nonfat dry milk in 1×TBST for 1 hr, the membrane containing histones lanes treated with inhibitor, were probed with H3K4Me3 (Abcam) primary antibody (1:2500) in 1×PBST. Both the membranes were incubated overnight at 4° C. under rotation. […] Histone proteins were detected by Supersignal™ West Pico PLUS Chemiluminescent substrate (ThermoFisher Scientific) using the Chemidoc XRS+ imaging system (BioRad). […]

[3] = tested on: HCT 116 cells; assay: Cell viability, resazurin reduction assay; assay type: cell-based; details: for loss of cell viability: HCT 116, 10 μM, cell penetrating peptide by itself
Protocol: (§1) FIG. 7. Cellular EP4 inhibitor delivery and viability. (A) Diagrammatic representation of EP4 inhibitor peptide showing N-terminally tagged 6-carboxyfluorescein and C-terminally tagged TAT cell delivery peptide. (B) Immunofluorescence microscopy showing internalization of EP4-TAT peptide (shown in green) to HCT 116 cells imaged 24 hr post-treatment with inhibitor. (C) Cell viability following 10 μM treatment of EP4 peptide conjugated to cell penetrating peptides, TAT, PR9 and CPP.
Cell viability was measured using the Resazurin reduction assay which indirectly quantifies living cells through the metabolically active reduction of resazurin to fluorescent resorufin. This assay allows to maintain cells viability and, therefore, to monitor cell growth with time. Exponentially growing cells were seeded into 96-well plates at the density of 2.0×10^4 cells/mL and incubated overnight. The media was replaced with fresh media prior to inhibitor treatment. Cells were treated with […] of inhibitor peptide for 24 hr. The inhibitor peptide was diluted in the cell culture media (DMEM −/−) in the absence of serum from a 5 mM stock. All the treated cells were compared to the control (TAT alone peptide with equivalent quantity of DMSO) which were considered as 100% viable. One set of wells also prepared with medium only for background subtracting and instrument gain adjustment. The experiments were carried out in triplicate and expressed as mean±SD. A 10% resazurin solution (0.15 mg/ml stock dissolved in PBS, filter sterilized and stored protected from light at 4° C.) was then added to each well and incubated for 2 hr. The fluorescence was recorded using a multiwell plate reader (Perkin Elmer) at Ex. 560 nm and Em. 610 nm.
The cell penetrating peptide tagged EP4 inhibitors are then tested for loss of cell viability on colorectal carcinoma HCT 116 cell line at a 10 μM dose (FIG. 7C).

[4] = tested on: NCI60 cancer cell lines; assay: NCI60 cancer panel screen (SRB staining); assay type: cell-based; details: 48 h, normalized to TAT-alone; SNB-75, A498, RXF393, UO-31, HOP-92, NCI-226, EKVX
Protocol: FIG. 10. NCI60 cancer panel screen of EP4-TAT. EP4-TAT and TAT-alone peptides were sent to the National Cancer Institute—Developmental Therapeutics program for screening effect on cell growth on the NCI60 cancer panel. Cell growth was monitored post-treatment with peptide in a dose-responsive manner (n=4). EP4-TAT effects were normalized to TAT-alone effects to control for delivery peptide. Following drug addition, the plates were incubated for an additional 48 hours at 37° C., 5% CO2, 95% air, and 100% relative humidity. Cell growth was monitored by Sulforhodamine B (SRB) staining. GI50 values are defined at the concentration of EP4-TAT that decreased cell growth by 50%.
Following the receipt at the NCI, cell-active EP4-TAT was be tested for its effects on cell viability in a dose-responsive manner in the complete panel. The effect of EP4-TAT on cell viability was carried out using Sulforhodamine B (SRB) staining in all 60 cell lines (n=4). Using several measurements [time zero (Tz), control growth (C), and growth at the five inhibitor concentrations (Ti)], the percentage growth will be calculated at each inhibition concentration. […]

[5] = tested on: HCT 116 cells; assay: Internalization of FITC-labelled peptides (fluorescence microscopy); assay type: cell-based; details: HCT 116, 10 μM, 24 hr
Protocol: as §1
To evaluate the internalization of FITC-labelled peptides, exponentially growing HCT 116 cells were seeded on 6 well plate at a density of 2×10^5 cells per well and incubated overnight. After overnight incubation, the media (DMEM with penstrep and 10% FBS) was replaced with fresh media supplemented with 10 μM FITC-labelled inhibitor peptides. Following the incubation (24 hr), cells were washed three times with ice cold PBS to remove the excess extracellular complexes. Cells were then stained with Hoechst dye (1:2000 dilution from 10 mg/mL stock in PBS) directly adding sufficient staining solution to the well. Cells were incubated for 10 min with the dye, protected from light. The staining solution is discarded and the cells were washed 3 times with PBS and imaged directly under fluorescent microscope.
Our EP4 KDM5C inhibitor peptide were tested for a decrease in cell viability. […]

[6] = tested on: HCT 116 cells; assay: Flow cytometry, PI staining (subG1 / apoptosis); assay type: cell-based; details: HCT 116, 2 μM
Protocol: FIG. 8. Global cell cycle distribution in EP4-TAT treated HCT 116 cells. EP4-TAT increases global H3K4me3 levels in HCT 116 cells. (A) Two-parameter flow cytometric analysis of BrdU incorporation and DNA content was performed following a 24 hr exposure of 2 μM and 5 μM EP4-TAT to HCT 116 cells. (B) The proportion of propidium iodine stained cells were represented in each phase of the cell cycle cell cycle and (C) dose-response correlation of BrdU positive cells were represented. These values are expressed relative to untreated controls. Each value in B, C represents the mean (+/−SEM) determined from 3 independent experiments.
A total of 0.3×10^6 HCT 116 cells were plated in 6 well-plate and incubated overnight. Cells were treated with the inhibitor, DMSO and TAT alone controls. For each condition, approximately 1×10^6 HCT 116 cells were collected along with the floating cells in the media by centrifugation at 300×g for 10 min. The cells were then washed with 5 mL of ice-cold PBS and re-suspended in 0.5 mL of ice-cold PBS. […] The PI-treated cells were incubated at 37° C. for 30 min and then analyzed by a flow cytometry (BD Accuri™ C6 Plus). […]
To determine whether loss in cell viability was associated with increased apoptosis, HCT 116 cells were treated with 2 μM of EP4-TAT and analyzed by PI staining.

CPI-455 [reference compound]
IC50 [1]: ~25 µM | global H3K4me3 levels [2]: increase global H3K4me3 levels

FFLIPKGRRRRRRRRR [PR9]
loss of cell viability [3]: 30%

RRWRRWRRWRR [CPP, cell penetrating peptide, chemically synthesized, cationic]
loss of cell viability [3]: 50%

TEDSKTHHH(SEQ ID NO: 4){6-aminohexanoic acid}GRKKRRQRRRPPQ(SEQ ID NO: 45) (TEDSKTHHHGRKKRRQRRRPPQ) [EP4-TAT]
growth inhibitory (GI50) effect [4]: growth inhibitory (GI50) effect in 7 lines | loss of cell viability (comparison of cell penetrating peptide tags) ([3]; HCT 116, 10 μM dose): maximum and consistent loss of cell viability | cellular internalization [5]: internalization | percentage of subG1 peak [6]: 52.8% | global H3K4me3 levels [2]: increase global H3K4me3 levels | demethylation of histone H3K4 tri-methylation ([2]; HCT 116, 25 nM): inhibited | cellular KDM5C inhibition compared with CPI-455 ([2]; HCT 116, relative H3K4me3 levels): more effective
